The text below walks through data of paper PMC3168589 (The European journal of neuroscience, 2011).

What is called Ki is the equilibrium dissociation constant of an inhibitor or competing ligand from its target.

“Also recorded” adds a separate entry of the source. Where two headings read alike, the source gives them in different places. The star is where a group is joined. Myristoyl = CCCCCCCCCCCCCC(=O)*

The test system of assay [1] is CREB phosphorylation in hippocampal pyramidal neurons. The assay can be described thus: CREB phosphorylation. In kind it is cell-based, rat (Sprague-Dawley, 1- to 2-d-old pups). Particulars: for concentrations inducing pCREB signal statistically different from vehicle: CRF F5,184 = 36.59, P < 0.001, UCN F5,175 = 23.00, P < 0.001; for τ of pCREB increase (time course): CRF df = 128, R^2 = 0.58, UCN df = 193, R^2 = 0.3, nonlinear curve fit.

The subject of assay [2] is CREB phosphorylation in hippocampal neurons. Conditions: 10 μM H89, hippocampal neurons; ref Bayatti et al., 2003; cited from earlier work.
Assay [3] concerns cAMP in hippocampal pyramidal neurons. The assay can be described thus: cAMP assay. Particulars: ISO 10 μM, 15 min, with IBMX 75 μM; positive control; P < 0.001 vs. '0 min'. The assay is classed as cell-based, rat (Sprague-Dawley, 1- to 2-d-old pups).
In the next assay the test system is CRFR1α. Particulars: stably transfected cell lines; ref Grammatopoulos et al., 2000; cited from earlier work.
Assay [4] deals with CRFR1. Particulars: read-out: Ki for CRFR1, ref Perrin et al., 1993; cited from earlier work.
In a further assay the test system is hippocampal neurons. Conditions: 2002, cited from earlier work.
For assay [5], the system named is CRFR1. Particulars: modified yeast cell screen; ref Ladds et al., 2003; cited from earlier work.
For assay [6], the system named is MAPK signaling in human myocytes. Conditions: UCN, but not CRF, ref Grammatopoulos et al., 2000; cited from earlier work.

On to `CCCCN(CC)c1nc(C)nc2c1c(C)cn2-c1c(C)cc(C)cc1C` [CP154526], for which the “effect on STR-induced CREB phosphorylation” value in assay [1] (CP154526 (100 nM) with STR 70 nM, F3,117 = 55.29, P < 0.001) is on record as “blocked”.
Regarding `O=S(=O)(NCCNC/C=C/c1ccc(Br)cc1)c1cccc2cnccc12` [H89], in assay [1] (H89 2 μM, CRF 40 nM, F3,105 = 44.94, P > 0.05), the “effect on CRF-induced CREB phosphorylation” value is reported as “did not block; also recorded: failed to block”. In addition, the “effect on UCN-induced CREB phosphorylation” value in assay [1] (H89 2 μM, UCN 40 nM, F3,118 = 27.19, P > 0.05) was “failed to block; also recorded: did not block”. In assay [2], the “involvement of PKA in CRF-induced CREB phosphorylation” value is “implicated PKA in CRF-induced CREB phosphorylation”.
Regarding `CC(C)NCC(O)c1ccc(O)c(O)c1` (stereo not shown) [ISO, isoproterenol], the cAMP increase entry in assay [3] is listed as “significantly increased cAMP levels”.
Regarding `COc1cccc(-c2cc(=O)c3ccccc3o2)c1N` [PD98059], in assay [1] (PD98059 25 μM, CRF 40 nM, F3,86 = 30.25, P > 0.05), the “effect on CRF-induced CREB phosphorylation” value is listed as “failed to affect; also recorded: unaffected”. In addition, in assay [1] (PD98059 (25 μM), STR (70 nM), F3,122 = 51.88, P > 0.05, data not shown), the “effect on STR-induced CREB phosphorylation” value is reported as “unaffected”. In addition, the “effect on UCN-induced CREB phosphorylation” value in assay [1] (PD98059 (25 μM), UCN 40 nM, F3,126 = 31.29, P < 0.001) is listed as “attenuated; also recorded: attenuated, but did not block”.
On to `Nc1ncnc2c1ncn2C1CCCO1` (stereo not shown) [SQ22536], for which, in assay [1] (SQ22536 90 μM, CRF 40 nM, F3,83 = 22.02, P > 0.05), the “effect on CRF-induced CREB phosphorylation” value was “no effect; also recorded: failed to affect”. Besides, the “effect on UCN-induced CREB phosphorylation” value in assay [1] (SQ22536 90 μM, UCN 40 nM, F3,113 = 25.34, P > 0.05) is “no effect; also recorded: failed to affect”.
`N#CC(=C(/N)Sc1ccccc1N)/C(C#N)=C(/N)Sc1ccccc1N` [U0126]: in assay [1] (U0126 10 μM, CRF 40 nM, F3,78 = 18.69, P > 0.05), the “effect on CRF-induced CREB phosphorylation” value is “failed to affect; also recorded: unaffected”. Also, in assay [1] (U0126 (10 μM), STR (70 nM), F3,126 = 43.18, P > 0.05, data not shown), the “effect on STR-induced CREB phosphorylation” value is “unaffected”. For the same compound, the “effect on UCN-induced CREB phosphorylation” value in assay [1] (U0126 (10 μM), UCN 40 nM, F3,128 = 28.68, P < 0.001) was “attenuated; also recorded: attenuated, but did not block”.
For `O=C1OC2(c3ccccc31)c1ccc(O)c(O)c1Oc1c2ccc(O)c1O` [gallein], in assay [1] (gallein 75 μM, CRF 40 nM, 15 min, F3,117 = 30.17, P < 0.001), the “effect on CRF-induced CREB phosphorylation” value was “blocked”. Also, in assay [1] (gallein 75 μM, UCN 40 nM, 15 min, F3,118 = 21.74, P < 0.001), the “effect on UCN-induced CREB phosphorylation” value is “blocked”.
Consider “PKI 14-22 amide myristoylated: second PKA inhibitor (Myristoyl-SGRTGRRNA-NH2; SMILES CCCCCCCCCCCCCC(=O)N[C@@H](CO)C(=O)NCC(=O)N[C@@H](CCCNC(=N)N)C(=O)N[C@H](C(=O)NCC(=O)N[C@@H](CCCNC(=N)N)C(=O)N[C@@H](CCCNC(=N)N)C(=O)N[C@@H](CC(N)=O)C(=O)N[C@@H](C)C(N)=O)[C@@H](C)O; UniProt P61925 14-22, looked up, fragment)”, for which the “effect on CRF-induced CREB phosphorylation” value in assay [1] (PKI 14-22 amide myristoylated 1 μM, CRF 40 nM, F3,133 = 38.91, P > 0.05, data not shown) is reported as “failed to block”. Moreover, the “effect on UCN-induced CREB phosphorylation” value in assay [1] (PKI 14-22 amide myristoylated 1 μM, UCN 40 nM, F3,113 = 39.24, P > 0.05, data not shown) was “failed to block”.
As for cholera toxin [CTX], in assay [1], the “effect on CRF-induced CREB phosphorylation” value was “abolished; also recorded: blocked” and the “effect on UCN-induced CREB phosphorylation” value is “abolished; also recorded: blocked”.
In the case of “human/rat corticotropin releasing factor [CRF]”, in assay [1], the “concentrations inducing pCREB signal statistically different from vehicle” value was not below 40 nM and the “τ of pCREB increase (time course)” value is given as ~ 10 min. Besides, the “cAMP activation, CRF compared with UCN” value in the assay on CRFR1α was “induce cAMP activation equally”. Moreover, the Ki on CRFR1 [4] is 5.2 to 11 nM. In addition, the “effect on hippocampal neuron excitability” value in the assay on hippocampal neurons (ref Aldenhoff et al., 1983, Blank et al.) is “rapidly increases hippocampal neuron excitability”. Moreover, in the assay on hippocampal neurons (ref Blank et al.), the “effect on hippocampal LTP” value is listed as “enhances hippocampal LTP”.
Take pertussis toxin [PTX]: the “effect on UCN-induced CREB phosphorylation” value in assay [1] (PTX 500 ng/mL, 18 hr pre-treatment, UCN 40 nM, F3,116 = 40.60, P > 0.05) was “did not affect”.
For rat urocortin I [UCN], in assay [1], the “concentrations inducing pCREB signal statistically different from vehicle” value is given as not below 40 nM and the “τ of pCREB increase (time course)” value is given as ~ 7 min. Besides, in the assay on CRFR1α, the “cAMP activation, CRF compared with UCN” value is “induce cAMP activation equally”. Further, the “CRFR1-dependent G protein activation” value in the assay with CRFR1 [5] was “CRFR1-dependent activation of Gαq”. Further, the “activation of MAPK signaling” value in assay [6] is given as “activates MAPK signaling”.
